Assays:
[1] = tested on: Bone marrow derived mast cells; test: Calcium influx in mast cells after IgE receptor crosslinking (Example 11); assay type: cell-based; details: 1 hr treatment, anti IgE antibody
Procedure: An assay to determine the inhibition of calcium influx in mast cells by Compound 106 was carried out as follows.
The activation of mast cells by IgE receptor crosslinking leads to an influx of calcium into the cells, followed by degranulation and secretion of pro-inflammatory mediator. Bone marrow derived mast cells were loaded with the fluorescent calcium indicator dye Fura-2 prior to treatment for 1 hr with Compound 106 or PBS carrier. Cells were then stimulated or not with an anti IgE antibody to cross-link the IgE receptors. Calcium influx was then monitored by fluorimetry. The results are depicted in a graph in FIG. 3.

[2] = tested on: plasma TNFα; test: Mouse endotoxemia model (Assay 6), plasma TNFα by ELISA; assay type: in vivo, mice; details: oral, 30 min prior to IP 2 mg/kg LPS, plasma TNFα 2 hrs later
Procedure: (§1) Assay 1) In vitro testing in a SHIP enzyme assay. Test compounds were dissolved in a suitable solvent (e.g. EtOH, DMSO and others) and diluted into aqueous buffer (20 mM Tris HCl, pH 7.5 and 10 mM MgCl2). SHIP enzyme assays were performed in 96-well microtitre plates with 10 ng of enzyme/well in a total volume of 25 μL of 20 mM Tris HCl, pH 7.5 and 10 mM MgCl2. SHIP enzyme was incubated with test extracts (provided in solvent) or vehicle for 15 min at 23° C. before the addition of 100 μM inositol-1,3,4,5-tetrakisphosphate (Echelon Biosciences Inc, Salt Lake City, Utah). After 20 min at 37° C. and the amount of inorganic phosphate released assessed by the addition of Malachite Green reagent and absorbance measurement at 650 nm. Assay 2) Macrophage TNF-α production. J774.1a macrophage cells were treated with 10 μg/mL of test compound dissolved in solvent (e.g. cyclodextran) for 40 minutes prior to the addition of 100 ng/mL LPS. Culture supernatants were collected after 2 hr and 5 hr for TNF-α determination by ELISA. Assay 3) Macrophage TNF-α NO assay. J774.1a macrophage cells were treated with 10 μg/ml of test compound dissolved in solvent for 40 minutes prior to the addition of LPS. Culture supernatants were collected after 24 hr. for determination of NO concentration using the Griess reagent. Assay 4) Stimulation of mast cells by FcεRI crosslinking. Mast cells were pre-loaded overnight in BMMC medium lacking IL-3 with 0.1 μg/ml anti-DNP IgE (SPE-7, Sigma, Oakville, Ont). For calcium flux measurements, cells were incubated with 2 μM fura 2-acetoxymethyl ester (Molecular Probes, Eugene, Oreg.) in Tyrode's buffer at 23° C. for 45 min. Cells were then washed and incubated in the presence of the test compound 30 min prior to stimulation with the indicated concentration of DNP-human serum albumin (DNP-HSA). Calcium influx was monitored by spectrofluorometry as described previously. For analysis of intracellular signaling, cells were pre-loaded with anti-DNP IgE as above, pre-treated with the test compound for 30 min at 37° C. and stimulated with 20 ng/ml DNP-HSA for 5 min. Total cell lysates were then prepared and analyzed for phospho-PKB, phospho-p38^MAPK, phospho-MAPK, Grb-2 (Cell Signalling, Mississauga, Ont) and SHIP^6 by immunoblot analysis. Assay 5) Mouse acute cutaneous anaphylaxis model. 6-8 week old CD1 mice (University of British Columbia Animal Facility, Vancouver, BC) were sensitized to the hapten DNP by cutaneous application of 25 μL of 0.5% dinitrofluorobenzene (DNFB) (Sigma, Oakville, Ont) in acetone to the shaved abdomen of mice for two consecutive days. 24 hrs later, test substances (dissolved in 10 μL of 1:2 DMSO:MeOH) were painted on the right ear while the left ear received vehicle control. 30 min after drug application, DNFB was applied to both ears to induce mast cell degranulation. A 6 mm punch was taken from the ear and immediately frozen on dry ice for subsequent determination of neutrophil myeloperoxidase (MPO) activity. Assay 6) Mouse endotoxemia model. […] The ability of SHIP activators to reduce tumor cell survival was assessed in MM cell lines treated with the test compound. The lines OPM1, OPM2, MM.1S and RPMI 8226 were plated at a density of 1×10^5 cells/mL in 200 μL of medium with various concentrations of the test compound, and viable cell numbers were determined on day 3 and day 5 by trypan blue exclusion. […]

[3] = tested on: J774.1a macrophage cells; test: Macrophage TNF-α NO assay (Assay 3), Griess reagent; assay type: cell-based; details: 10 μg/ml test compound, LPS, supernatants after 24 hr; note: key: a ‘+’ indicates a positive result for desired activity; a ‘−’ indicates a negative result for desired activity
Procedure: (§2) Assay 1) In vitro testing in a SHIP enzyme assay. Test compounds were dissolved in a suitable solvent (e.g. EtOH, DMSO and others) and diluted into aqueous buffer (20 mM Tris HCl, pH 7.5 and 10 mM MgCl2). SHIP enzyme assays were performed in 96-well microtitre plates with 10 ng of enzyme/well in a total volume of 25 μL of 20 mM Tris HCl, pH 7.5 and 10 mM MgCl2. SHIP enzyme was incubated with test extracts (provided in solvent) or vehicle for 15 min at 23° C. before the addition of 100 μM inositol-1,3,4,5-tetrakisphosphate (Echelon Biosciences Inc, Salt Lake City, Utah). After 20 min at 37° C. and the amount of inorganic phosphate released assessed by the addition of Malachite Green reagent and absorbance measurement at 650 nm. Assay 2) Macrophage TNF-α production. J774.1a macrophage cells were treated with 10 μg/mL of test compound dissolved in solvent (e.g. cyclodextran) for 40 minutes prior to the addition of 100 ng/mL LPS. Culture supernatants were collected after 2 hr and 5 hr for TNF-α determination by ELISA. Assay 3) Macrophage TNF-α NO assay. J774.1a macrophage cells were treated with 10 μg/ml of test compound dissolved in solvent for 40 minutes prior to the addition of LPS. Culture supernatants were collected after 24 hr. for determination of NO concentration using the Griess reagent. Assay 4) Stimulation of mast cells by FcεRI crosslinking. Mast cells were pre-loaded overnight in BMMC medium lacking IL-3 with 0.1 μg/ml anti-DNP IgE (SPE-7, Sigma, Oakville, Ont). For calcium flux measurements, cells were incubated with 2 μM fura 2-acetoxymethyl ester (Molecular Probes, Eugene, Oreg.) in Tyrode's buffer at 23° C. for 45 min. Cells were then washed and incubated in the presence of the test compound 30 min prior to stimulation with the indicated concentration of DNP-human serum albumin (DNP-HSA). Calcium influx was monitored by spectrofluorometry as described previously. For analysis of intracellular signaling, cells were pre-loaded with anti-DNP IgE as above, pre-treated with the test compound for 30 min at 37° C. and stimulated with 20 ng/ml DNP-HSA for 5 min. Total cell lysates were then prepared and analyzed for phospho-PKB, phospho-p38^MAPK, phospho-MAPK, Grb-2 (Cell Signalling, Mississauga, Ont) and SHIP^6 by immunoblot analysis. Assay 5) Mouse acute cutaneous anaphylaxis model. 6-8 week old CD1 mice (University of British Columbia Animal Facility, Vancouver, BC) were sensitized to the hapten DNP by cutaneous application of 25 μL of 0.5% dinitrofluorobenzene (DNFB) (Sigma, Oakville, Ont) in acetone to the shaved abdomen of mice for two consecutive days. 24 hrs later, test substances (dissolved in 10 μL of 1:2 DMSO:MeOH) were painted on the right ear while the left ear received vehicle control. 30 min after drug application, DNFB was applied to both ears to induce mast cell degranulation. A 6 mm punch was taken from the ear and immediately frozen on dry ice for subsequent determination of neutrophil myeloperoxidase (MPO) activity. Assay 6) Mouse endotoxemia model. 6-8 week old C57B16 mice (VCHRI Mammalian Model of Human Disease Core Facility, Vancouver, BC) were orally administered the test compound 30 min prior to an IP injection of 2 mg/kg of LPS (E. Coli serotype 0111:B4, Sigma, Oakville, Ont). Blood was drawn 2 hrs later for determination of plasma TNFα by ELISA. Assay 7) In vitro Mulitple Myeloma (MM) assay. The ability of SHIP activators to reduce tumor cell survival was assessed in MM cell lines treated with the test compound. The lines OPM1, OPM2, MM.1S and RPMI 8226 were plated at a density of 1×10^5 cells/mL in 200 μL of medium with various concentrations of the test compound, and viable cell numbers were determined on day 3 and day 5 by trypan blue exclusion. The lines RPMI 8226 and U266 were plated at a density of 1×10^6 cells/mL in 250 μL of medium with various concentrations of the test compound. At day 4, the medium of each culture was replaced by fresh medium containing the same concentration of test compound. […]

[4] = tested on: Mast cells; test: Stimulation of mast cells by FcεRI crosslinking (Assay 4); assay type: cell-based; details: test compound 30 min prior to DNP-HSA
Procedure: as §1, with “model.” for “model. 6-8 week old CD1 mice (University of British Columbia Animal Facility, Vancouver, BC) were sensitized to the hapten DNP by cutaneous application of 25 μL of 0.5% dinitrofluorobenzene (DNFB) (Sigma, Oakville, Ont) in acetone to the shaved abdomen of mice for two consecutive days. 24 hrs later, test substances (dissolved in 10 μL of 1:2 DMSO:MeOH) were painted on the right ear while the left ear received vehicle control. 30 min after drug application, DNFB was applied to both ears to induce mast cell degranulation. A 6 mm punch was taken from the ear and immediately frozen on dry ice for subsequent determination of neutrophil myeloperoxidase (MPO) activity. Assay 6) Mouse endotoxemia model.”

[5] = tested on: J774.1a macrophage cells; test: Macrophage TNF-α production (Assay 2); assay type: cell-based; details: 10 μg/mL test compound, 100 ng/mL LPS, supernatants after 2 hr and 5 hr; note: key: a ‘+’ indicates a positive result for desired activity; a ‘−’ indicates a negative result for desired activity
Procedure: as §2

[6] = tested on: J2M macrophage cells; test: TNFα production in LPS-stimulated J2M macrophages (Example 10); assay type: cell-based; details: 2 ng/mL LPS
Procedure: An assay to determine the inhibition of macrophage TNFα by varying concentrations of Compound 106 was carried out as follows.
J2M macrophage cells were plated at 2×10^5 cells/well in 24 well plates. The next day the media was changed and Compound 106 or PBS carrier were added to the wells at the indicated concentrations for 30 min prior to stimulation of the cells with 2 ng/mL lipopolysaccharide (LPS). LPS activation of macrophages leads to production of TNFa which can be detected in the culture supernatant and quantified by ELISA. The results are depicted in a graph in FIG. 2.

With `Cc1cc(OC(=O)C(N)CCCCN)cc2c1[C@]1(C)CCC3C(C)(C)CCC[C@]3(C)[C@H]1C2` (stereo partly drawn) [Compound 106] the “inhibition of calcium influx in mast cells” value [1] was “Inhibits Calcium Influx in Mast Cells”, the “Assay 6: Mouse endotoxemia model, desired activity” value [2] was “+” and the “Assay 3: Macrophage NO assay, desired activity” value [3] was “+”. The “Assay 4: Stimulation of mast cells by FcεRI crosslinking, desired activity” value [4] was “+”, the “Assay 2: Macrophage TNF-α production, desired activity” value [5] was “+” and the “inhibition of macrophage TNFα production” value [6] was “Inhibits Macrophage TNFα Production”.
